From PubChem BioAssay AID330 (DTP/NCI, 2004)
Values joined by “and” are separate entries in the source; they are usually repeats but may differ in a detail not shown here. Equal values may be shown once. Inconclusive results and toxic doses are left out. Peptide text beside a SMILES is read from it.

Tested on: P388 leukemia ip, CD2F1 mice, survival T/C
Assay: NCI In Vivo Anticancer Drug Screen. Data for tumor model P388 Leukemia (intraperitoneal) in CD2F1 (CDF1) mice
Details: endpoint: median survival time, higher = longer survival
Outline: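 Mice carrying the transplanted tumor received test compound or vehicle. Survival was recorded in each group, and the value is the treated-group measurement divided by that of the vehicle-treated control group.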

[1] = dose: 50.0 mg/kg/injection, schedule: Q01DX009 (ip), vehicle: saline with Tween-80
[2] = dose: 100.0 mg/kg/injection, schedule: Q01DX009 (ip), vehicle: saline with Tween-80
[3] = dose: 200.0 mg/kg/injection, schedule: Q01DX009 (ip), vehicle: saline with Tween-80
[4] = dose: 50.0 mg/kg/injection, schedule: Q01DX009 (ip), vehicle: Klucel (hydroxypropylcellulose) (HPC)
[5] = dose: 100.0 mg/kg/injection, schedule: Q01DX009 (ip), vehicle: Klucel (hydroxypropylcellulose) (HPC)
[6] = dose: 200.0 mg/kg/injection, schedule: Q01DX009 (ip), vehicle: Klucel (hydroxypropylcellulose) (HPC)
[7] = dose: 50.0 mg/kg/injection, schedule: Q01DX005 (ip), vehicle: saline with Tween-80
[8] = dose: 100.0 mg/kg/injection, schedule: Q01DX005 (ip), vehicle: saline with Tween-80
[9] = dose: 200.0 mg/kg/injection, schedule: Q01DX005 (ip), vehicle: saline with Tween-80
[10] = dose: 50.0 mg/kg/injection, schedule: Q01DX005 (ip), vehicle: Klucel (hydroxypropylcellulose) (HPC)
[11] = dose: 100.0 mg/kg/injection, schedule: Q01DX005 (ip), vehicle: Klucel (hydroxypropylcellulose) (HPC)
[12] = dose: 60.0 mg/kg/injection, schedule: Q01DX005 (ip), vehicle: saline with Tween-80
[13] = dose: 120.0 mg/kg/injection, schedule: Q01DX005 (ip), vehicle: saline with Tween-80
[14] = dose: 25.0 mg/kg/injection, schedule: Q01DX009 (ip), vehicle: saline with Tween-80

C1=CN2CC(c3ccccc3)N=C2S1 (configuration not stated)
T/C (dose: 12.5 mg/kg/injection, schedule: Q01DX009 (ip), vehicle: other): 99 % of control | T/C (dose: 25.0 mg/kg/injection, schedule: Q01DX009 (ip), vehicle: other): 102 % of control

COc1cc(CC2c3cc(OC)c(OC)cc3CCN2C)c(Oc2cc3c(cc2OC)-c2c(OC)c(OC)c(OC)c4c2C(C3)N(C)CC4)cc1OC (configuration not stated)
T/C (dose: 37.5 mg/kg/injection, schedule: Q01DX009 (ip), vehicle: Klucel (hydroxypropylcellulose) (HPC)): 102 % of control | T/C (dose: 75.0 mg/kg/injection, schedule: Q01DX009 (ip), vehicle: Klucel (hydroxypropylcellulose) (HPC)): 88 % of control | T/C (dose: 150.0 mg/kg/injection, schedule: Q01DX009 (ip), vehicle: Klucel (hydroxypropylcellulose) (HPC)): 94 % of control

N#C/C(=C\c1c2ccccc2c(Cl)c2ccccc12)C(N)=S
T/C (dose: 6.25 mg/kg/injection, schedule: Q01DX009 (ip), vehicle: saline): 90 % of control | T/C (dose: 12.5 mg/kg/injection, schedule: Q01DX009 (ip), vehicle: saline): 88 % of control | T/C (dose: 25.0 mg/kg/injection, schedule: Q01DX009 (ip), vehicle: saline): 90 % of control | T/C (dose: 50.0 mg/kg/injection, schedule: Q01DX009 (ip), vehicle: saline): 92 % of control | T/C (dose: 100.0 mg/kg/injection, schedule: Q01DX009 (ip), vehicle: saline): 97 % of control | T/C (dose: 200.0 mg/kg/injection, schedule: Q01DX009 (ip), vehicle: saline): 103 % of control

Cc1ccc2[nH]c3c(c2c1)-c1ncncc1CC3
T/C (dose: 100.0 mg/kg/injection, schedule: Q04DX002 (ip), vehicle: Klucel (hydroxypropylcellulose) (HPC)): 104 % of control | T/C (dose: 200.0 mg/kg/injection, schedule: Q04DX002 (ip), vehicle: Klucel (hydroxypropylcellulose) (HPC)): 92 % of control

CCOC(=O)CCC(NC(=O)c1ccc(N(C)CCC(C)=O)cc1)C(=O)OCC (configuration not stated)
T/C [1]: 111 % of control | T/C [2]: 111 % of control | T/C [3]: 102 % of control | T/C (dose: 400.0 mg/kg/injection, schedule: Q01DX009 (ip), vehicle: saline with Tween-80): 97 % of control

C1=CC(Cc2ccccc2)NC1 (configuration not stated)
T/C (dose: 100.0 mg/kg/injection, schedule: Q01DX001 (ip), vehicle: distilled water + alcohol): 100 % of control | T/C (dose: 200.0 mg/kg/injection, schedule: Q01DX001 (ip), vehicle: distilled water + alcohol): 100 % of control

CCOC(=O)CNC(=O)Oc1ccc(Cl)cn1
T/C [4]: 102 % of control | T/C [5]: 97 % of control | T/C [6]: 102 % of control

CC(C)C(NC(=O)C(N)CCCN=C(N)N)C(=O)O (stereo not drawn) (H-Arg-Val-OH; configuration not given here)
T/C [7]: 91 % of control | T/C [8]: 100 % of control | T/C [9]: 100 % of control

COC(=O)N1CCC(N)(C#N)CC1
T/C (dose: 12.5 mg/kg/injection, schedule: Q04DX003 (ip), vehicle: Klucel (hydroxypropylcellulose) (HPC)): 100 % of control | T/C (dose: 25.0 mg/kg/injection, schedule: Q04DX003 (ip), vehicle: Klucel (hydroxypropylcellulose) (HPC)): 93 % of control

CC1CC2OC(=O)CC2C(O)C2(C)C(OC(C)(C)C)CCC12 (configuration not stated)
T/C [10]: 100 % of control | T/C [11]: 90 % of control

O=C1OC2=C(CCCc3ccccc32)C(N(c2ccccc2)c2ccccc2)C1(Cl)Cl (configuration not stated)
T/C [4]: 96 % of control | T/C [5]: 88 % of control | T/C [6]: 89 % of control

COC(=O)n1nc(C)c(N(C)C)n1
T/C [7]: 99 % of control | T/C [8]: 106 % of control | T/C [9]: 113 % of control

CCOC(=O)c1cc(/C=C/c2ccc(Cl)cc2Cl)on1
T/C [12]: 100 % of control | T/C [13]: 90 % of control

CC(=O)OC(C)(C)/C=C/C(=O)[C@](C)(O)[C@H]1[C@H](O)C[C@@]2(C)[C@@H]3CC=C4[C@@H](C[C@H](O)C(=O)C4(C)C)[C@]3(C)C(=O)C[C@]12C
T/C (dose: 0.13 mg/kg/injection, schedule: Q01DX010 (ip), vehicle: saline): 95 % of control | T/C (dose: 0.25 mg/kg/injection, schedule: Q01DX009 (ip), vehicle: saline with Tween-80): 104 % of control | T/C (dose: 0.25 mg/kg/injection, schedule: Q01DX010 (ip), vehicle: saline): 104 % of control | T/C (dose: 0.5 mg/kg/injection, schedule: Q01DX009 (ip), vehicle: saline with Tween-80): 100 % of control | T/C (dose: 0.5 mg/kg/injection, schedule: Q01DX010 (ip), vehicle: saline): 100 % of control | T/C (dose: 0.62 mg/kg/injection, schedule: Q01DX009 (ip), vehicle: saline): 113 % of control | T/C (dose: 1.0 mg/kg/injection, schedule: Q01DX009 (ip), vehicle: saline with Tween-80): 109 % of control | T/C (dose: 1.0 mg/kg/injection, schedule: Q01DX010 (ip), vehicle: saline): 104 % of control | T/C (dose: 1.25 mg/kg/injection, schedule: Q01DX009 (ip), vehicle: saline): 117 % of control | T/C (dose: 2.0 mg/kg/injection, schedule: Q01DX009 (ip), vehicle: saline with Tween-80): 118 % of control | T/C (dose: 2.5 mg/kg/injection, schedule: Q01DX009 (ip), vehicle: saline): 117 % of control | T/C (dose: 5.0 mg/kg/injection, schedule: Q01DX009 (ip), vehicle: saline): 113 % of control | T/C (dose: 10.0 mg/kg/injection, schedule: Q01DX009 (ip), vehicle: saline): 113 % of control

CC1=CCCN(C)C1c1ccccc1 (configuration not stated)
T/C (dose: 50.0 mg/kg/injection, schedule: Q01DX005 (ip), vehicle: saline): 99 % of control | T/C (dose: 100.0 mg/kg/injection, schedule: Q01DX005 (ip), vehicle: saline): 99 % of control

CN(C)CC(C)(CN(C)C)C(=O)/C=C/c1c(Cl)cccc1Cl
T/C [12]: 115 % of control | T/C [13]: 120 % of control

COc1c(OC)c([N+](=O)[O-])c2c(c1[N+](=O)[O-])COC2=O
T/C [10]: 104 % of control | T/C [11]: 103 % of control

CCOC(CNc1cnc(NC(C)=O)[nH]c1=O)OCC
T/C [14]: 102 % of control | T/C [1]: 104 % of control | T/C [2]: 102 % of control | T/C [3]: 112 % of control

COc1ccc(Br)cc1/C=N/N=C/c1cc(Br)ccc1OC
T/C (dose: 100.0 mg/kg/injection, schedule: Q04DX003 (ip), vehicle: saline with Tween-80): 90 % of control | T/C (dose: 200.0 mg/kg/injection, schedule: Q04DX003 (ip), vehicle: saline with Tween-80): 86 % of control | T/C (dose: 400.0 mg/kg/injection, schedule: Q04DX003 (ip), vehicle: saline with Tween-80): 86 % of control

CCOC(=S)SC1CC2(C)C(CCC3C2CCC2(C)C(OC(C)=O)CCC32)CC1=O (configuration not stated)
T/C (dose: 100.0 mg/kg/injection, schedule: Q04DX003 (ip), vehicle: saline): 96 % of control | T/C (dose: 200.0 mg/kg/injection, schedule: Q04DX003 (ip), vehicle: saline): 92 % of control | T/C (dose: 400.0 mg/kg/injection, schedule: Q04DX003 (ip), vehicle: saline): 89 % of control

COC1=CC(=O)c2c(O)cc(OC)cc2C1=O
T/C (dose: 1.25 mg/kg/injection, schedule: Q01DX009 (ip), vehicle: saline with Tween-80): 106 % of control and 116 % of control | T/C (dose: 2.5 mg/kg/injection, schedule: Q01DX009 (ip), vehicle: saline with Tween-80): 101 % of control and 108 % of control | T/C (dose: 5.0 mg/kg/injection, schedule: Q01DX009 (ip), vehicle: saline with Tween-80): 100 % of control and 114 % of control | T/C (dose: 10.0 mg/kg/injection, schedule: Q01DX009 (ip), vehicle: saline with Tween-80): 100 % of control and 92 % of control | T/C (dose: 20.0 mg/kg/injection, schedule: Q01DX009 (ip), vehicle: saline with Tween-80): 107 % of control and 92 % of control

c1ccc(N=N/C(=N\Nc2ccccc2)SCCS/C(N=Nc2ccccc2)=N/Nc2ccccc2)cc1
T/C [14]: 98 % of control and 97 % of control | T/C [1]: 93 % of control and 97 % of control | T/C [2]: 111 % of control and 92 % of control | T/C [3]: 98 % of control

O=S1(=O)CS(=O)(=O)OCCCCCO1
T/C (dose: 6.25 mg/kg/injection, schedule: Q01DX005 (ip), vehicle: Klucel (hydroxypropylcellulose) (HPC)): 161 % of control | T/C (dose: 12.5 mg/kg/injection, schedule: Q01DX005 (ip), vehicle: Klucel (hydroxypropylcellulose) (HPC)): 211 % of control and 213 % of control | T/C (dose: 25.0 mg/kg/injection, schedule: Q01DX005 (ip), vehicle: Klucel (hydroxypropylcellulose) (HPC)): 255 % of control and 288 % of control | T/C [10]: 165 % of control and 288 % of control

COC(=O)C(CC(C)C)NC(=O)C(Cc1cnc[nH]1)NC(=O)C(CS)N(C(=O)OCc1ccccc1)C(=O)OCc1ccccc1 (configuration not stated)
T/C [7]: 99 % of control | T/C [8]: 98 % of control | T/C [9]: 100 % of control
